This note sets out measurements from PubChem BioAssay (NCI).

Test systems include RPMI-8226 leukemia; HCC-2998 colon; HOP-92 NSCLC; U251 CNS; DU-145 prostate; SNB-19 CNS; NCI-H460 lung; OVCAR-8 ovarian; NCI/ADR-RES ovarian; SK-MEL-2 melanoma.
What all share (test): NCI-60 cell line screen, 48 h

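Values below derive from 48-hour exposures of cells grown in 96-well plates, with endpoints linearly interpolated between the two concentrations bracketing the appropriate inhibition level. GI50 = concentration required for 50% inhibition of growth. TGI is the concentration that stops growth completely.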 Residues, ends and D or L forms follow the SMILES beside them. *: point of attachment. Cbz = O=C(OCc1ccccc1)*

For the compound `CC/C=C\C[C@H](O)C/C=C1/C(=O)C=C[C@@H]1C/C=C\CCCCO`, the GI50 in the assay with RPMI-8226 leukemia was 2.52 µM; with HCC-2998 colon, 1.83 µM; in the assay on HOP-92 NSCLC, 11.7 µM; with U251 CNS it was 3.81 µM; with DU-145 prostate, 4 µM; in the assay on SNB-19 CNS it was 7.6 µM. Further, the GI50 in the assay on NCI-H460 lung was 2.93 µM; in the assay on OVCAR-8 ovarian, 3.24 µM; in the assay on NCI/ADR-RES ovarian, 3.35 µM; with SK-MEL-2 melanoma, 5.96 µM. The TGI was found to be 10.4 µM in the assay on RPMI-8226 leukemia; 3.38 µM in the assay on HCC-2998 colon; 25 µM in the assay with HOP-92 NSCLC; 13.4 µM in the assay with U251 CNS; 15.2 µM in the assay with DU-145 prostate; 23.2 µM with SNB-19 CNS. In addition, the TGI in the assay on NCI-H460 lung was determined as 9.24 µM; in the assay with OVCAR-8 ovarian, 11.9 µM; in the assay on NCI/ADR-RES ovarian, 38.4 µM; in the assay on SK-MEL-2 melanoma it was 22.6 µM.
With `COc1cc(C2CC(=O)Nc3c2c(C)nn3-c2nc3ccccc3[nH]2)cc(OC)c1O` (stereo not given), the GI50 with RPMI-8226 leukemia was 3.07 µM; with HCC-2998 colon, 6.48 µM; in the assay on HOP-92 NSCLC it was 2.8 µM; with U251 CNS it was 3.49 µM; with DU-145 prostate it was 4.98 µM; in the assay on SNB-19 CNS, 3.5 µM. The GI50 in the assay with NCI-H460 lung was 3.19 µM; in the assay on OVCAR-8 ovarian it was 3.4 µM; with NCI/ADR-RES ovarian it was 7.81 µM; in the assay on SK-MEL-2 melanoma, 2.23 µM. Also, the TGI was 12.5 µM in the assay with RPMI-8226 leukemia; 35.7 µM in the assay on HCC-2998 colon; 8.81 µM with HOP-92 NSCLC; greater than 40.8 µM in the assay with U251 CNS; 40.3 µM with DU-145 prostate; greater than 100 µM in the assay with SNB-19 CNS. Also, the TGI is greater than 35.1 µM in the assay with NCI-H460 lung, greater than 32.1 µM in the assay with OVCAR-8 ovarian, greater than 78.2 µM in the assay with NCI/ADR-RES ovarian and 4.52 µM with SK-MEL-2 melanoma.
Turning to `COc1ccc(Cn2cc3c(c2-c2cc(OC)c(OC)c(OC)c2)CCc2c(CO)noc2-3)cc1`, the GI50 was 0.41 µM in the assay on RPMI-8226 leukemia; 1.08 µM in the assay with HCC-2998 colon; 2.97 µM in the assay with HOP-92 NSCLC; 0.349 µM with U251 CNS; 0.361 µM in the assay on DU-145 prostate; 0.43 µM in the assay with SNB-19 CNS. The GI50 with NCI-H460 lung was 0.341 µM; with OVCAR-8 ovarian it was 0.417 µM; with NCI/ADR-RES ovarian, 0.294 µM; in the assay on SK-MEL-2 melanoma, 0.455 µM. Further, the TGI in the assay with RPMI-8226 leukemia was 13.6 µM; in the assay with HCC-2998 colon it was 19.2 µM; in the assay with HOP-92 NSCLC, 22.2 µM; in the assay on U251 CNS, 15.5 µM; in the assay with DU-145 prostate it was 16 µM; with SNB-19 CNS, 21.4 µM. Besides, the TGI is 13.6 µM in the assay on NCI-H460 lung, 19.6 µM in the assay with OVCAR-8 ovarian, greater than 57 µM with NCI/ADR-RES ovarian and 19.5 µM in the assay with SK-MEL-2 melanoma.
Turning to `COC(=O)c1oc2c(C(=O)/C=C/c3ccc(OC)cc3)c(OCCN3CCOCC3)ccc2c1C`, the GI50 in the assay with RPMI-8226 leukemia is 1.57 µM; in the assay with HCC-2998 colon, 1.64 µM; with HOP-92 NSCLC, 1.54 µM; with U251 CNS it was 1.4 µM; with DU-145 prostate, 1.75 µM; with SNB-19 CNS, 1.65 µM. In addition, the GI50 in the assay on NCI-H460 lung is 1.91 µM; with OVCAR-8 ovarian it was 1.8 µM; with NCI/ADR-RES ovarian, 2.48 µM; with SK-MEL-2 melanoma it was 1.32 µM. The TGI is 4.2 µM in the assay on RPMI-8226 leukemia; 3.17 µM with HCC-2998 colon; 5.48 µM in the assay on HOP-92 NSCLC; 2.74 µM in the assay with U251 CNS; 4.24 µM in the assay on DU-145 prostate; 4.15 µM with SNB-19 CNS. Further, the TGI in the assay on NCI-H460 lung was 4.75 µM; with OVCAR-8 ovarian it was 4.7 µM; with NCI/ADR-RES ovarian it was greater than 24 µM; in the assay on SK-MEL-2 melanoma, 3.15 µM.
In the case of `CC(C)C(=O)c1c(C(F)(F)F)n([O-])c2ccccc2[n+]1=O`, the GI50 in the assay on RPMI-8226 leukemia is 0.178 µM; with HCC-2998 colon, 1.74 µM; in the assay on HOP-92 NSCLC, 0.466 µM; with U251 CNS, 2.84 µM; with DU-145 prostate, 1.12 µM; in the assay on SNB-19 CNS it was 3.51 µM. Also, the GI50 in the assay on NCI-H460 lung was 1.72 µM; in the assay on OVCAR-8 ovarian, 2.14 µM; with NCI/ADR-RES ovarian, 1.74 µM; with SK-MEL-2 melanoma it was 2.01 µM. Moreover, the TGI was 1.31 µM in the assay on RPMI-8226 leukemia; 4.04 µM in the assay with HCC-2998 colon; 1.62 µM in the assay on HOP-92 NSCLC; greater than 33.2 µM in the assay on U251 CNS; 2.54 µM in the assay on DU-145 prostate; 25.8 µM in the assay on SNB-19 CNS. Further, the TGI was 5.56 µM with NCI-H460 lung, greater than 20.5 µM in the assay on OVCAR-8 ovarian, 5.46 µM with NCI/ADR-RES ovarian and 5.58 µM in the assay with SK-MEL-2 melanoma.
Consider `CNC(=O)c1cccc(C#Cc2cncnc2Nc2ccc(OCc3cccc(F)c3)c(Cl)c2)c1`, for which the GI50 was 14 µM in the assay on RPMI-8226 leukemia; 9.15 µM in the assay with HCC-2998 colon; 3.31 µM in the assay on HOP-92 NSCLC; 4.47 µM with U251 CNS; 3.57 µM in the assay with DU-145 prostate; 6.9 µM with SNB-19 CNS. The GI50 was 5.04 µM with NCI-H460 lung, 7.3 µM in the assay on OVCAR-8 ovarian, 6.94 µM in the assay on NCI/ADR-RES ovarian and 8.82 µM with SK-MEL-2 melanoma. In addition, the TGI in the assay on RPMI-8226 leukemia is greater than 25 µM; with HCC-2998 colon, greater than 25 µM; with HOP-92 NSCLC it was 11 µM; in the assay with U251 CNS it was 10.2 µM; in the assay with DU-145 prostate, 8.96 µM; with SNB-19 CNS, greater than 25 µM. In addition, the TGI in the assay with NCI-H460 lung is 12.9 µM; with OVCAR-8 ovarian it was greater than 25 µM; with NCI/ADR-RES ovarian, greater than 25 µM; with SK-MEL-2 melanoma, greater than 25 µM.
Regarding `CC(C)C[C@@H](C=O)NC(=O)[C@H](CC(C)C)NC(=O)[C@H](CC(C)C)NC(=O)OCc1ccccc1` (Cbz-Leu-Leu-Leu-aldehyde), the GI50 with RPMI-8226 leukemia is 0.356 µM; in the assay with HCC-2998 colon, 0.24 µM; with HOP-92 NSCLC, 0.319 µM; in the assay on U251 CNS it was 0.332 µM; in the assay with DU-145 prostate, 0.53 µM; in the assay on SNB-19 CNS, 0.829 µM. Besides, the GI50 in the assay on NCI-H460 lung was 0.455 µM; with OVCAR-8 ovarian, 0.523 µM; in the assay with NCI/ADR-RES ovarian, 3.26 µM; with SK-MEL-2 melanoma, 0.483 µM. The TGI was 13.8 µM in the assay with RPMI-8226 leukemia; 0.631 µM with HCC-2998 colon; 0.797 µM with HOP-92 NSCLC; 1.07 µM with U251 CNS; 10.6 µM in the assay on DU-145 prostate; greater than 100 µM in the assay on SNB-19 CNS. The TGI in the assay with NCI-H460 lung was 2.02 µM; in the assay on OVCAR-8 ovarian it was 4.66 µM; in the assay on NCI/ADR-RES ovarian, greater than 100 µM; in the assay on SK-MEL-2 melanoma, 3.28 µM.
